Source: patent US20060069132A1, “Azolecarboxamide herbicides” (priority 2004, published 2006)

Legend:
barnyardgrass = test: Test A pre-/postemergence herbicide test; type: in vivo, Echinochloa crus-galli
In short: (§1)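 Sandy loam soil given preemergence directed spray; plants at 2 to 10 cm, one- to two-leaf stage, sprayed to runoff postemergence, compounds in non-phytotoxic solvent with surfactant. Injury rated visually versus untreated controls after about ten greenhouse days, 0 (no effect) to 100 (complete control); dash means not tested.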

large crabgrass = test: Test A pre-/postemergence herbicide test; type: in vivo, Digitaria sanguinalis
In short: as §1

redroot pigweed = test: Test A pre-/postemergence herbicide test; type: in vivo, Amaranthus retroflexus
In short: as §1

corn = test: Test C pre-/postemergence herbicide test; type: in vivo, Zea mays; settings: preemergence
In short: (§2)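 Preemergence: seeds planted and treated with compound in non-phytotoxic solvent with surfactant; postemergence: plants at 2 to 18 cm (1- to 4-leaf stage) sprayed likewise. Kept in greenhouse 12 to 14 days, then visually rated against controls, 0 (no effect) to 100 (complete control).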

giant foxtail = test: Test C pre-/postemergence herbicide test; type: in vivo, Setaria faberi; settings: preemergence
In short: as §2

kochia = test: Test C pre-/postemergence herbicide test; type: in vivo, Kochia scoparia; settings: preemergence
In short: as §2

lambsquarters = test: Test C pre-/postemergence herbicide test; type: in vivo, Chenopodium album; settings: 125 g ai/ha; scale 0 (no effect) to 100 (complete control); visual, 12 to 14 days; preemergence
In short: as §2

common ragweed = test: Test C pre-/postemergence herbicide test; type: in vivo, Ambrosia elatior; set-up: key to Plant response rating, Ragweed: 0 = no effect, 100 = complete control; settings: preemergence
In short: as §2

[1] = system: common (oilseed) sunflower; test: Test C pre-/postemergence herbicide test; type: in vivo, Helianthus annuus; settings: 125 g ai/ha; scale 0 (no effect) to 100 (complete control); visual, 12 to 14 days; preemergence
In short: as §2

velvetleaf = test: Test C pre-/postemergence herbicide test; type: in vivo, Abutilon theophrasti; settings: 125 g ai/ha; scale 0 (no effect) to 100 (complete control); visual, 12 to 14 days; preemergence
In short: as §2

[2] = Postemergence, 500 g ai/ha, 0 to 100 scale, 0 no effect, 100 complete control
[3] = Postemergence, 2000 g ai/ha, 0 to 100 scale, 0 no effect, 100 complete control
[4] = Preemergence, 500 g ai/ha, visual rating, 0 to 100 scale (0 no effect, 100 complete control)
[5] = Preemergence, 2000 g ai/ha, visual rating, 0 to 100 scale (0 no effect, 100 complete control)
[6] = 125 g ai/ha, scale 0 (no effect) to 100 (complete control), visual, 12 to 14 days

CC(=O)c1cccc(NC(=O)c2cc(C(C)(C)C)nn2CCF)c1 [Compound 128]
Barnyardgrass plant response rating (barnyardgrass; [2]): 70
Plant response rating, Barnyardgrass (barnyardgrass; [3]): 80
Barnyardgrass plant response rating (barnyardgrass; [4]): 55
Barnyardgrass plant response rating (barnyardgrass; [5]): 85
Crabgrass, Large plant response rating (large crabgrass; [2]): 60
Plant response rating, Crabgrass, Large (large crabgrass; [3]): 70
Crabgrass, Large plant response rating (large crabgrass; [4]): 90
Crabgrass, Large plant response rating (large crabgrass; [5]): 100
Pigweed plant response rating (redroot pigweed; [2]): 50
Plant response rating, Pigweed (redroot pigweed; [3]): 80
Pigweed plant response rating (redroot pigweed; [5]): 95
Pigweed plant response rating (redroot pigweed; preemergence, 500 g ai/ha, visual injury, 0 to 100 scale (0 no effect, 100 complete control)): 60
Plant response rating (0 = no effect, 100 = complete control), Corn (corn; 62 g ai/ha): 20
Plant response rating, Corn (corn; [6]): 20
Plant response rating (0 = no effect, 100 = complete control), Foxtail, Giant (giant foxtail; 62 g ai/ha): 10
Plant response rating, Foxtail, Giant (giant foxtail; [6]): 10
Plant response rating (0 = no effect, 100 = complete control), Kochia (kochia; 62 g ai/ha): 0
Plant response rating, Kochia (kochia; [6]): 0
Plant response rating, Lambsquarters (lambsquarters): 30
Plant response rating (0 = no effect, 100 = complete control), Ragweed (common ragweed; 62 g ai/ha): 10
Plant response rating, Ragweed (common ragweed; [6]): 20
Plant response rating, Sunflower [1]: 50
Plant response rating, Velvetleaf (velvetleaf): 100
